In PMC12613816, “Discovery of Novel Isoxazole-Based Small-Molecule Toll-Like Receptor 8 Antagonists” (Journal of Medicinal Chemistry, 2025):

Key:
TLR8 [1] = target: T1, TLR8 (Homo sapiens, UniProt Q9NR97); assay: Inhibition of TL8-506-stimulated TNF release (ELISA) in PBMCs; conditions: read-out: IC50 [μM] (95% CI) TNF release PBMCs, 1 h preincubation, TL8-506 (0.6 μM) 4 h
T1 sequence (Q9NR97 27-1041): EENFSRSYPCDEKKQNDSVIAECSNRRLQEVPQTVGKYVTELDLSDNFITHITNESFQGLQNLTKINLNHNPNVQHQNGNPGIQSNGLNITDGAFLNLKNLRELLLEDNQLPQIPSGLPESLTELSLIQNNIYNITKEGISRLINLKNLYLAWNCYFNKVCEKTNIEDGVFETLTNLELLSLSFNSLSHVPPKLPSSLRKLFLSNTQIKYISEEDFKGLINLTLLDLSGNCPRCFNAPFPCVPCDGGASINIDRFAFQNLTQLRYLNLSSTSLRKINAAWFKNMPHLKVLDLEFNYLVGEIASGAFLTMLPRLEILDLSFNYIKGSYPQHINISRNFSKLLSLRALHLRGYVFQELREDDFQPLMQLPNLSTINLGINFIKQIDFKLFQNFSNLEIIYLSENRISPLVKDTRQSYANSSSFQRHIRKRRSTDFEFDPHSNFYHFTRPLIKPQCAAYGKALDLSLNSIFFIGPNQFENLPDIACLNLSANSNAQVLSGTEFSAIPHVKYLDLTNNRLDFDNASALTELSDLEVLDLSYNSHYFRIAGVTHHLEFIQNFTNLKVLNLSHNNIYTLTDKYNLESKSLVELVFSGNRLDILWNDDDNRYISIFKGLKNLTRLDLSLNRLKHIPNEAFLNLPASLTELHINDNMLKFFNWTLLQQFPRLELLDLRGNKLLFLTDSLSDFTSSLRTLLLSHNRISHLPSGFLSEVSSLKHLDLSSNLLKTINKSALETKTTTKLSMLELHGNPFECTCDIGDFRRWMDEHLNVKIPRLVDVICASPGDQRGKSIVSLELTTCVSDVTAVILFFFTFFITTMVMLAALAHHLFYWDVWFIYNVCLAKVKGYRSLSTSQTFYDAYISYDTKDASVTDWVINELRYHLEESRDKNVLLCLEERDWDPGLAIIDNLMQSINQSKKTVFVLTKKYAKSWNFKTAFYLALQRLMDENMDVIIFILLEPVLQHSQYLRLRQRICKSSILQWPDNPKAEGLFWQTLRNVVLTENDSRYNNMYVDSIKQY
Text: For the calculation of concentration–response curves, nonlinear regression with variable slope (four parameters) was used. Mean ± SEM (n = 3).
PMBCs were washed three times with PBS containing ETDA and afterward seeded in 24-well plates (5 × 10^6 cells/well).

hTLR7 = target: T2, hTLR7 (Homo sapiens, UniProt Q9NYK1); assay: Inhibition of CL307-stimulated NF-κB activity (SEAP reporter) in hTLR7-HEK293 reporter cells; assay type: cell-based; conditions: read-out: IC50 [μM] (95% CI) hTLR7-HEK293; inhibition of NF-κB activity; 1 h preincubation, CL307 (1.7 µM) 24 h
T2 construct: host or cells: HEK293 (HEK-Blue hTLR7)
T2 sequence (Q9NYK1 27-1049): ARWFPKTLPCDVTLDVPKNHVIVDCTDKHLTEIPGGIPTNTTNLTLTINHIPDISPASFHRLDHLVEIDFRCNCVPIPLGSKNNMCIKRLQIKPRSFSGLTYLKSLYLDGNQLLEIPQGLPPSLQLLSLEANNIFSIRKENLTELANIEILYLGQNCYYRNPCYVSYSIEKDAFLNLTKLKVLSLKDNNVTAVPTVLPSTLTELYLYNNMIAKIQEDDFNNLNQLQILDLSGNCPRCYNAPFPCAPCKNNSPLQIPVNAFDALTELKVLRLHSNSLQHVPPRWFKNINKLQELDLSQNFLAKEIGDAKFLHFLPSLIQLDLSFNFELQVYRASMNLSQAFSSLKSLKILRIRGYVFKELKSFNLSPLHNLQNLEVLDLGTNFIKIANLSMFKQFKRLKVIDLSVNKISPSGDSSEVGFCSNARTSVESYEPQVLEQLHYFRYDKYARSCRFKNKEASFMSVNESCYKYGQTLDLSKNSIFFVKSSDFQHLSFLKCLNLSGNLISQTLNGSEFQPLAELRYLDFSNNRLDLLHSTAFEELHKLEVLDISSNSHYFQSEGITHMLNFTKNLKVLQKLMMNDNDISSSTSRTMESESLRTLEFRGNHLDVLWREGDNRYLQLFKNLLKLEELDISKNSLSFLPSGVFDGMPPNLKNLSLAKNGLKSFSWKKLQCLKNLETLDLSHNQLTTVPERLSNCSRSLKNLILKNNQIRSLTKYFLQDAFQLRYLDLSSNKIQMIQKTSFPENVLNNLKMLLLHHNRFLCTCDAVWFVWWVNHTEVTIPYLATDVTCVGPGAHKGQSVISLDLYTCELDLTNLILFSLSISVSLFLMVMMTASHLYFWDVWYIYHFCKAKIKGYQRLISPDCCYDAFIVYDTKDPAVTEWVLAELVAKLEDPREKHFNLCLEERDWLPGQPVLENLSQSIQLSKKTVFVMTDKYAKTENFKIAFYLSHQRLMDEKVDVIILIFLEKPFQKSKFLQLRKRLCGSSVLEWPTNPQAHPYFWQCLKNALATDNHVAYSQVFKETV
Text: For stimulation experiments, cells were washed with phosphate-buffered saline (PBS, Sigma-Aldrich) and media was replaced with OptiMEM (Thermo Fisher Scientific, Darmstadt, Germany). […] The following TLR ligands were used: Pam2CSK4, Pam3CSK4, poly(I:C) (HMW), LPS from Escherichia coli O111:B4 (LPS-EB Ultrapure), flagellin from Bacillus subtilis (flagellin-BS Ultrapure), CL307, CL075, R848, TL8-506, ODN2006 (all from InvivoGen, Toulouse, France), and Enpatoran (BIOZOL Diagnostika, Germany).

TLR8 [2] = target: T1, TLR8; assay: Inhibition of TL8-506-stimulated NF-κB activity (SEAP reporter, QuantiBlue) in hTLR8-HEK293 reporter cells; assay type: cell-based; set-up: host or cells: HEK293 (HEK-Blue hTLR8); conditions: TL8-506 (0.6 μM) 24 h
TLR8 F495L mutation = target: T3, TLR8 F495L mutation (Homo sapiens, UniProt Q9NR97, F495L); assay: NF-κB SEAP reporter in HEK293 reporter control cells transfected with TLR8 F495L mutant plasmid; assay type: cell-based; conditions: compound 10 2 μM, Enpatoran 1 μM; TL8-506 3 μM or CL075 4 μM, 24 h
T3 construct: host or cells: HEK-Blue Null1 cells, transient transfection with PEI Max
T3 sequence (Q9NR97 1-1059 isoform Q9NR97-2 F513L): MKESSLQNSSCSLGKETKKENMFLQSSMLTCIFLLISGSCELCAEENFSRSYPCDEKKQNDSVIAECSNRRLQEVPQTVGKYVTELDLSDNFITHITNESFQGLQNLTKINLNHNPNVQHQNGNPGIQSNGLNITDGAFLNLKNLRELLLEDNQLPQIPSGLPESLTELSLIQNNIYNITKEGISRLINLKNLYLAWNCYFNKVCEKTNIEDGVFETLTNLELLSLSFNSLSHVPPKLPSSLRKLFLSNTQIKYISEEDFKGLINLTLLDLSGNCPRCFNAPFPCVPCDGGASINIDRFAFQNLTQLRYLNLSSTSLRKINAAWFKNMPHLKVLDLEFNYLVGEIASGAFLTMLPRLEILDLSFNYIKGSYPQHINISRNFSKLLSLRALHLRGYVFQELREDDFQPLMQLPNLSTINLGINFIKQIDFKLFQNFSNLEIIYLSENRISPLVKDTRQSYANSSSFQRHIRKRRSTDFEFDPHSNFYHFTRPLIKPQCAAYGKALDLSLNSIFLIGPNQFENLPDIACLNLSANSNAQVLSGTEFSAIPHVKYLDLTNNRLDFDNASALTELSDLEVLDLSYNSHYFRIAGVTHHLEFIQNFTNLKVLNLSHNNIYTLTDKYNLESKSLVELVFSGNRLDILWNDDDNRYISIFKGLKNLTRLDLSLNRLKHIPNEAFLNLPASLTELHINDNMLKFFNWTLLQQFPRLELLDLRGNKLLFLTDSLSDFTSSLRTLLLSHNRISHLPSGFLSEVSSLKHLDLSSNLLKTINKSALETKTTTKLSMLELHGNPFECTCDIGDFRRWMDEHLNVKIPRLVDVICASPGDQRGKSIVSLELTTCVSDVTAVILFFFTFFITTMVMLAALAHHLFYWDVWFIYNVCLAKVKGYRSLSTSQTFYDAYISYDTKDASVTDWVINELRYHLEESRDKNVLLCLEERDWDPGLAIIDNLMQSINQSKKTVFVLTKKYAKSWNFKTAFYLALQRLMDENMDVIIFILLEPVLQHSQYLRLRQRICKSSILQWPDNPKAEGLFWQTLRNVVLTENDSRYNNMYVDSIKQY

Compound N#Cc1ccc(N2C[C@H](N)C[C@H](C(F)(F)F)C2)c2cccnc12 [Enpatoran, reference compound] has an IC50 (TLR8 [1]) of 0.074 µM, an IC50 (hTLR7) of at most 0.05 µM and an inhibition at 10 µM (TLR8 [2]; read-out: % inhibition at 10 µM ± SEM (NF-κB activity), 10 µM compound, hTLR8-HEK293) of 100%. For the same compound, the IC50 (TLR8 [2]; read-out: IC50 [μM] (95% CI) hTLR8-HEK293, inhibition of NF-κB activity, 1 h preincubation) was 0.285 µM and the “TLR8 activation in F495L mutation, triggered by CL075 and TL8-506” value (TLR8 F495L mutation) was “reduced”.
